Measurements published in ChEMBL document CHEMBL1201862, “PubChem BioAssay data set” (2004).
The source made the active and inactive calls.

Assays:
[1] = target: Kallikrein-7 (Homo sapiens, UniProt P49862); experiment: Fluorescence Intensity-based biochemical primary high throughput dose response assay to identify activators of kallikrein-7 (K7) zymogen.
[2] = Luminescence Cell-Based Dose Response HTS to Identify Activators of Luciferase Translation or Activity in H4 […] Cells. [Related pubchem assays: 1829 (Project Summary), 1814 (Primary HTS)]; assay type: functional
[3] = target: T1, Oxysterols receptor LXR-beta (Homo sapiens, UniProt P55055); assay type: functional, cell-based;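 further: Cell-based luminescence dose-response assay of agonist activity at LXR, run as a confirmatory counterscreen to a daf-12 agonist screen; HEK293 cells with Gal4-LXR fusion and GAL4-driven luciferase reporter; agonist potency from rising luciferase signal of a Gal4-LXR reporter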
T1 sequence (P55055 whole entry): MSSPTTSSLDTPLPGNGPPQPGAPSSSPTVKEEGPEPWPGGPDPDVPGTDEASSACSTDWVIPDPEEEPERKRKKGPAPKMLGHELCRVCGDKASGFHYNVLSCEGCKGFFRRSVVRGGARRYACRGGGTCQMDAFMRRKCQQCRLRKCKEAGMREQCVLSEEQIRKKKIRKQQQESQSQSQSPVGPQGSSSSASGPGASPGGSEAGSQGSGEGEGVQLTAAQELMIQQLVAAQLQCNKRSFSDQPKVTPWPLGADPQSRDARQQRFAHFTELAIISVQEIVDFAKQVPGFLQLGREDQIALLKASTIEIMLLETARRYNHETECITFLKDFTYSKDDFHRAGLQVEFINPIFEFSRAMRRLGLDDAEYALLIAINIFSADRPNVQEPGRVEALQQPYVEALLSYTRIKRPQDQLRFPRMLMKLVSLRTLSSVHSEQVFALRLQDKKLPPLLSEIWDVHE

[4] = cells; assay type: functional, cell-based
[5] = tested on: H4; experiment: Luminescence Cell-Based Dose Response HTS to Identify Activators of 5'UTR Stem-Loop Driven Prion Protein mRNA Translation in H4 Neuroglioblastoma Cells. [Related pubchem assays: 1829 (Project Summary), 1814 (Primary HTS)]; assay type: functional; conditions: Homo sapiens
[6] = Luminescence Cell-Based Dose Confirmation HTS to Identify Activators of 5'UTR Stem-Loop Driven Alpha-Synuclein mRNA Translation in H4 Neuroglioblastoma Cells. [Related pubchem assays: 1829 (Project Summary), 1814 (Primary HTS)]; assay type: functional
[7] = cells
[8] = target: T2, Sentrin-specific protease 8 (Homo sapiens, UniProt Q96LD8); assay type: functional;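 further: luminescence read-out of SENP8 inhibition, dose-response confirmation following an ultra-high-throughput screen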
T2 sequence (Q96LD8 whole entry): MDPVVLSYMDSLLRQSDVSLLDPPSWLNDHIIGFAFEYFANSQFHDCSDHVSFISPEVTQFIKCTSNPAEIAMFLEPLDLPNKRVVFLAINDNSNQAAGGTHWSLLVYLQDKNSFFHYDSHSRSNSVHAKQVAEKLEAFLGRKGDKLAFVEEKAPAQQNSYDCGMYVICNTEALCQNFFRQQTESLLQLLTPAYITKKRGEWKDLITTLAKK

[9] = cells; assay type: functional, cell-based; remark: listed apart in the source
[10] = target: T3, Caspase-3 (Homo sapiens, UniProt P42574); assay type: functional;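 further: Dose-response selectivity test against caspase-3 for candidate inhibitors of sentrin-specific proteases (SENPs)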
T3 sequence (P42574 whole entry): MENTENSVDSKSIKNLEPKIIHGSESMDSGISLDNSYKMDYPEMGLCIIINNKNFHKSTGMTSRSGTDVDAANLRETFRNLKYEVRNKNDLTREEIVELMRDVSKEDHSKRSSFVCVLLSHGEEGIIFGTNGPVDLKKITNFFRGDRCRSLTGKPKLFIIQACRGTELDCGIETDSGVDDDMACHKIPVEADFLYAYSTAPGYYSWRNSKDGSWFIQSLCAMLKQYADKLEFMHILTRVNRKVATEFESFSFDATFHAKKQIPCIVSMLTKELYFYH

[11] = target: T4, Sentrin-specific protease 6 (Homo sapiens, UniProt Q9GZR1); assay type: functional;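 further: Luminescence-based dose-response confirmatory assay of SENP6 inhibition, following up an ultra-high-throughput screen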
T4 sequence (Q9GZR1 whole entry): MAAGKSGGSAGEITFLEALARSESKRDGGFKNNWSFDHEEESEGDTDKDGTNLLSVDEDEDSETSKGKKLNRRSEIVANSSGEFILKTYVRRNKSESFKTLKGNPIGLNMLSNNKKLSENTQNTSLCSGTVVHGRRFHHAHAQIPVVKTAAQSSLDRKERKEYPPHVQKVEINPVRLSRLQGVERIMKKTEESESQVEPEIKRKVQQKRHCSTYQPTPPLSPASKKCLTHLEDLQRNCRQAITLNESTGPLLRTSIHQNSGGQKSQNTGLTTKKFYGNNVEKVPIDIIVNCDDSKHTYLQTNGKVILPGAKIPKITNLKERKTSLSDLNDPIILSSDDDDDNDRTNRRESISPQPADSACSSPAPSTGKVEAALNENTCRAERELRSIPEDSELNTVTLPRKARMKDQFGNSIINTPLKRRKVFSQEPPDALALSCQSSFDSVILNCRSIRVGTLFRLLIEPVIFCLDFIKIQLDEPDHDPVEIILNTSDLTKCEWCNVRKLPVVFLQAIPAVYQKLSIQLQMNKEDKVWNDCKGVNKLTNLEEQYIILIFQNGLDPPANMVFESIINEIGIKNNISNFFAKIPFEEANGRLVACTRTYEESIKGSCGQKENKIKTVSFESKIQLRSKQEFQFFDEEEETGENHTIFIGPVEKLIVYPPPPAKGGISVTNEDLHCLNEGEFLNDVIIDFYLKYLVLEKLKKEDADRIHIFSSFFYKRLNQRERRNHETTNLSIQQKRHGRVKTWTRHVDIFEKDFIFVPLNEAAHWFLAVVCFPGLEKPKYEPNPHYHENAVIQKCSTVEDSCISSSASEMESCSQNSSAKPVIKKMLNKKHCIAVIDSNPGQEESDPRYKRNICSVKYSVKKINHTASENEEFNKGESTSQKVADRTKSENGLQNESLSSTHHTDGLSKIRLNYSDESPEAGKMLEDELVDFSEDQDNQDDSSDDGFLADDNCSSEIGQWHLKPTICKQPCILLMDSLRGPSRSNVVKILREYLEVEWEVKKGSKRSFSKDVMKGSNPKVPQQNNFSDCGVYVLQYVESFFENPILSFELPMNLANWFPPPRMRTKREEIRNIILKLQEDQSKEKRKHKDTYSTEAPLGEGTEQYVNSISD

[12] = target: Nonstructural protein 1 (Influenza A virus, UniProt Q194T2); assay type: functional, Influenza A virus (A/California/07/2009(H1N1))
[13] = target: T5, Sentrin-specific protease 7 (Homo sapiens, UniProt Q9BQF6); assay type: functional;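 further: Luminescence-based dose-response confirmation of ultra-high-throughput screening hits, measuring inhibition of SENP7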
T5 sequence (Q9BQF6 whole entry): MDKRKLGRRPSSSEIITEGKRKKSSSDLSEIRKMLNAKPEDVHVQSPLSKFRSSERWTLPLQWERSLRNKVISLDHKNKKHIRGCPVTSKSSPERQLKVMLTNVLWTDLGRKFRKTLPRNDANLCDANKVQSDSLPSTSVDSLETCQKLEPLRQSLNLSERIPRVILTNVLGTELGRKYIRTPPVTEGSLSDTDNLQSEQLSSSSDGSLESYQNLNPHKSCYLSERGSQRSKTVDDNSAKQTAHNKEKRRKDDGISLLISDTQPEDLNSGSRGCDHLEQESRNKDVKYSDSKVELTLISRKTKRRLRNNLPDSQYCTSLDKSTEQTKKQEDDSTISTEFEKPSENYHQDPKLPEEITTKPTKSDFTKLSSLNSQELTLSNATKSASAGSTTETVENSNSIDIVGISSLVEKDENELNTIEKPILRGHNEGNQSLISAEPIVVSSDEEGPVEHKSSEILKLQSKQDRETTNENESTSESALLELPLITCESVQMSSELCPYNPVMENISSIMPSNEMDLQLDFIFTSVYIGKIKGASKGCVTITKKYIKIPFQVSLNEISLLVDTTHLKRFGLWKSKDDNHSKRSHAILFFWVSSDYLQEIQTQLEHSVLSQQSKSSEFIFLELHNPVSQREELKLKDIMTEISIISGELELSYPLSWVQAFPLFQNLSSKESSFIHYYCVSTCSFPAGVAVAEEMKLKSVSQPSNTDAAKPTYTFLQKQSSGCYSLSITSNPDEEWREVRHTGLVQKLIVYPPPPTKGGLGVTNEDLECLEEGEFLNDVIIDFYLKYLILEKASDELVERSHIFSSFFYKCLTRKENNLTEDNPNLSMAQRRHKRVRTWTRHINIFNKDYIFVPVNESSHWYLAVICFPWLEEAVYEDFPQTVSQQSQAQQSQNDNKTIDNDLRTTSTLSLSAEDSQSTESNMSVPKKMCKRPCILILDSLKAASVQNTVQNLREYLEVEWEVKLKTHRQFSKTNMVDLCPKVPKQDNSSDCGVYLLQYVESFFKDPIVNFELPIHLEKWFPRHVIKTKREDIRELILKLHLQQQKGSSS

[14] = THP-1 cell cytotoxicity, dose response, cytotoxicity control for Vif-APOBEC3G degradation inhibitor project, THP-1 cells (AID 1117359); assay type: functional; conditions: Human immunodeficiency virus 1, THP-1
[15] = P. falciparum Dd2 growth inhibitors, dose response, SYBR Green, dry powder samples, set 9 (AID 1159568); assay type: functional, cell-based
[16] = target: T6, Aryl hydrocarbon receptor (Homo sapiens, UniProt P35869); experiment: Luminescence-based cell-based high throughput dose response assay for activators of the Aryl Hydrocarbon Receptor (AHR). [Related pubchem assays: 2796 (Primary screen (AHR activators in singlicate)), 2845 (Confirmation screen (AHR activators in triplicate)), 434939 (Counterscreen (PXR activators in triplicate)), 2804 (Summary (AHR activators))]; assay type: ADME
T6 sequence (P35869 whole entry): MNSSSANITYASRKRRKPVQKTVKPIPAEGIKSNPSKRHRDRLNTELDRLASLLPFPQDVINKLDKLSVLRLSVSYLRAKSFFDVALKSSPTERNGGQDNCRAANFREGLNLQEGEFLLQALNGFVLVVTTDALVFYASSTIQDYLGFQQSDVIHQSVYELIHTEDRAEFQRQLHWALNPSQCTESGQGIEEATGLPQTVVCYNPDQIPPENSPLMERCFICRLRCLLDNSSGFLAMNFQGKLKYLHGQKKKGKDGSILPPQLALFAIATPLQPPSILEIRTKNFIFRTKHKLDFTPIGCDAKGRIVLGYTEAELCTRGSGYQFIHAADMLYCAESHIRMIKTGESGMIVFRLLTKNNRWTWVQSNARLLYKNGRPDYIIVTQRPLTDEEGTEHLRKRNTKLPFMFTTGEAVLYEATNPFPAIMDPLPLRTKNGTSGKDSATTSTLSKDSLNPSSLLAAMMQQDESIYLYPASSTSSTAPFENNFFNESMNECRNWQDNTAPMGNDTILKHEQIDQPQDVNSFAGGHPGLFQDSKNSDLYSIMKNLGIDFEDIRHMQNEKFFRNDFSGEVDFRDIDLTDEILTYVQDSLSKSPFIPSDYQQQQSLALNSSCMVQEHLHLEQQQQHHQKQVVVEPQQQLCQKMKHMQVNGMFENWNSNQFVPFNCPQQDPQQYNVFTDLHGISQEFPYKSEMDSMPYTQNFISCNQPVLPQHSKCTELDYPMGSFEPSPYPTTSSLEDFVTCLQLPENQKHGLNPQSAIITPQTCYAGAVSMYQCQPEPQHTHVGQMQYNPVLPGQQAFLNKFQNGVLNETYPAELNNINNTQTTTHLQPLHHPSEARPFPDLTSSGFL

[17] = target: T7, Carboxy-terminal domain RNA polymerase II polypeptide A small phosphatase 1 (Homo sapiens, UniProt Q9GZU7); experiment: inhibitors of CTDSP1, concentration-response testing, biochemical assay, absorbance-based, actives from ultra-high-throughput screening (AID 540297); assay type: functional
T7 sequence (Q9GZU7 whole entry): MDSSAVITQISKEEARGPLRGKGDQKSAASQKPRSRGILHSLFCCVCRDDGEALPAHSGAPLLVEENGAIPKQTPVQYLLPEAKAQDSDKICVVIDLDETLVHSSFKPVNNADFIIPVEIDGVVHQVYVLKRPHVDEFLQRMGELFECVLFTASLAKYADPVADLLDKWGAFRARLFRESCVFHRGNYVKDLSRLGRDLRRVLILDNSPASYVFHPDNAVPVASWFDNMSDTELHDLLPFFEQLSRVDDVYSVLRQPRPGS

[18] = target: T8, Caspase-6 (Homo sapiens, UniProt P55212); experiment: human caspase-6 inhibitors, dose response, biochemical, VEID-R110 fluorescence, cherry-pick (AID 720632)
T8 sequence (P55212 whole entry): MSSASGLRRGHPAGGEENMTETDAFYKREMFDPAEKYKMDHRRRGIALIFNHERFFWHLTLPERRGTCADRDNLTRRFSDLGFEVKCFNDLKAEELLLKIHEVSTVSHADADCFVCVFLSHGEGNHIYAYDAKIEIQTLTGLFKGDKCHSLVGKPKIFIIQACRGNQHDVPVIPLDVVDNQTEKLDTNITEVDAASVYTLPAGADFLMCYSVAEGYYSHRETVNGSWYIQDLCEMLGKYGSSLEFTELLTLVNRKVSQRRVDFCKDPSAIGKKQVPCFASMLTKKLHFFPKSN

Kallikrein-7, sequence (P49862 whole entry): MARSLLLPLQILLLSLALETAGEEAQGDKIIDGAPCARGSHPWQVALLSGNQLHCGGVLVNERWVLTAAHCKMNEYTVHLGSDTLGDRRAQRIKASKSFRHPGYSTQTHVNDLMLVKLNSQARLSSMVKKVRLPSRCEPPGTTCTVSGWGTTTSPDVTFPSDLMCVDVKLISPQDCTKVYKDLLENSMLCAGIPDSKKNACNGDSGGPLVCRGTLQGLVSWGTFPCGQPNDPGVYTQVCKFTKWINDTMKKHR
Nonstructural protein 1, sequence (Q194T2 whole entry): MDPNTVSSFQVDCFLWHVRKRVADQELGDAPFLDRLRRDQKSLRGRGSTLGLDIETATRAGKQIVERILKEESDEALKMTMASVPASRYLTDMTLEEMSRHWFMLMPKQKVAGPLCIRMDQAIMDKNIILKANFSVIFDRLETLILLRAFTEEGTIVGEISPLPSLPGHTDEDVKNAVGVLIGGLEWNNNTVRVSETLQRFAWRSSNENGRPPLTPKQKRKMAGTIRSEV

With `CCCc1cc(NCCOCCO)n2c(nc3ccccc32)c1C#N` the EC50 [1] was > 2.57 µM (active).

With `c1ccc(N=Nc2ccc3cccccc2-3)cc1` the EC50 [2] was 1.1 µM (active), the EC50 [3] was > 67.5 µM (inactive) and the EC50 [4] was > 350 µM (not active). For the same compound, the EC50 [5] was > 120 µM (not active), the EC50 [6] was 0.771 µM (active) and the EC50 [7] was > 67.5 µM (inactive). The IC50 [8] was 22.3 µM (active), the EC50 [9] was 6.29 µM (active) and the IC50 [10] was 24.5 µM (active). The IC50 [11] was 13.9 µM (active), the IC50 [12] was 10.8 µM (active) and the IC50 [13] was 4.59 µM (active).

In the case of `Clc1ccc(CNc2ccc(CNc3nc[nH]n3)cc2)c(Cl)c1`, the CC50 [14] was > 40 µM (active).

With `C[C@@H]1CN([C@H](C)CO)C(=O)c2ccccc2-c2ccccc2CO[C@H]1CN(C)C(=O)[C@H](Cc1ccccc1)N(C)C` the AC50 [15] was 11.9 µM (active).

With `CCCC#Cc1ccc2c(c1)O[C@H](CN(C)Cc1ccccn1)[C@H](C)CN([C@@H](C)CO)S2(=O)=O` the AC50 [15] was 3.94 µM (active).

In the case of `COc1ccc(NC(=O)c2ccc(NC(=O)CSc3nc(N)cc(O)n3)cc2)cc1`, the EC50 [1] was 22.4 µM (inactive).

In the case of `COc1ccc(C)cc1N=C(N)Nc1nc(C)cc(C)n1`, the EC50 [16] was 3.95 µM (active).

In the case of `O=C(CCc1c[nH]c2ccccc12)N1CCN(c2ccc(O)cc2)CC1`, the CC50 [14] was > 40 µM (active).

In the case of `COc1ccc(S(=O)(=O)NNC(=O)Cc2csc(C)n2)cc1[N+](=O)[O-]`, the IC50 [17] was 16.3 µM (active) and the AC50 [18] was 8.98 µM (active).

For `COC(=O)C1=NN(c2ccccc2)C2C(=O)N(c3ccccc3OC)C(=O)C12` (stereo not drawn), the EC50 [1] was > 69.5 µM (inactive).

In the case of `CCOC(=O)c1c(C)nn(Cc2cccc(Cl)c2)c1N`, the CC50 [14] was > 40 µM (active).
